Measurements published in publication PMC6270163, “Anti-inflammatory Lignans from the Fruits of Acanthopanax sessiliflorus” (Molecules, 2012).
Like-named read-outs stand apart in the source and are kept apart here.

Legend:
RAW 264.7 macrophages = assay: Cell viability by MTT reduction; settings: for Cell toxicity / influence on cell viability (in words): RAW 264.7 cells treated with compounds
[1] = system: LPS-induced NO production in RAW 264.7 macrophage cells; assay: Inhibition of LPS-induced NO production (nitrite, Griess reagent); settings: pretreated 1 h with compounds, then LPS (1 μg/mL) for 24 h, mean ± SD, three independent experiments
Method: Assays for NO production and cell viability were carried out as previously described [23]. […] The plates were pretreated with various concentrations of samples for 30 min and incubated with LPS (1 μg/mL) for 24 h. The amount of NO was determined by the nitrite concentration in cultured RAW264.7 macrophage supernatants using the Griess reagent. The cell viability was evaluated by MTT reduction.

[2] = Cell viability by MTT reduction; settings: mouse
[3] = read-out: IC50 (concentration that caused 50% inhibition of NO production), LPS-activated RAW 264.7 macrophage cells
[4] = Mus musculus, RAW264.7, read-out: IC50 (concentration that caused 50% inhibition of NO production), LPS-activated RAW 264.7 macrophage cells

Compound	Cell viability (%) (RAW 264.7 macrophages; RAW 264.7 cells, at a concentration of 100 μM, MTT reduction, mean ± SD, three independent experiments)	IC50 [1, 3] [µM]	viability at 24 h, 100 µM ([2]; RAW 264.7 macrophages) [%]	IC50 [1, 4] [µM]	Cell toxicity / influence on cell viability (in words) (RAW 264.7 macrophages)	viability at 24 h, 100 µM [2] [%]
N=C(N)NN [Aminoguanidine, reference compound]	84.61 ± 2.50	6.51 ± 1.15	–	–	–	–
COc1cc([C@H]2OC[C@@H]3[C@H]2CO[C@H]3c2ccc3c(c2)OCO3)ccc1O [Compound 6, (+)-piperitol]	–	–	84.1 ± 2.46	22.3 ± 1.1	–	–
COc1cc(OC)cc([C@@H](O)[C@H]2COC[C@@H]2Cc2ccc(O)c(O)c2)c1 [Compound 1, 3-(3',4'-dihydroxybenzyl)-4-[(7S),7-hydroxy-3,5-dimethoxybenzyl]tetrahydrofuran]	–	–	84.8 ± 2.71	49.9 ± 6.56	–	–
(+)-pinoresinol [Compound 5]	–	10.3 ± 2.37	–	–	–	–
COc1cc([C@H]2OC[C@H]3[C@@H]2CO[C@@H]3c2ccc3c(c2)OCO3)ccc1O[C@@H]1O[C@H](CO)[C@@H](O)[C@H](O)[C@H]1O [Compound 9, simlexoside]	–	–	54.5 ± 2.21	53 ± 2.75	Some cell toxicity was observed	–
COc1cc([C@H]2OC[C@H]3[C@@H]2CO[C@@H]3c2ccc3c(c2)OCO3)ccc1O [Compound 7, (+)-xanthoxylol]	–	21.6 ± 1.28	88.4 ± 3.71	27.6	–	–
O=C1OC[C@H](Cc2ccc3c(c2)OCO3)[C@H]1Cc1ccc2c(c1)OCO2 [Compound 3, (−)-hinokinin]	–	–	50.2 ± 1.55	21.6 ± 1.19	Some cell toxicity was observed	–
c1cc2c(cc1[C@@H]1OCC3C1CO[C@H]3c1ccc3c(c1)OCO3)OCO2 (single isomer, unassigned; (-)) [Compound 2, (−)-sesamin]	–	38.9 ± 2.86	–	49.9 to 65.1	–	95.5 ± 2.01
COc1cc([C@H]2OC[C@H]3[C@@H]2CO[C@@H]3c2cc(OC)c(O[C@@H]3O[C@H](CO)[C@@H](O)[C@H](O)[C@H]3O)c(OC)c2)cc(OC)c1O [Compound 8, acanthoside B]	–	–	–	–	–	82.4 ± 1.27
